The numbers were not newly measured in PMC9773016, “Strebluses E–H, four new stilbene-like derivatives from the stems of Streblus ilicifolius” (RSC Advances, 2022), which cites them from elsewhere.

As a reminder, the IC50 is the concentration that inhibits the measured activity by half.

The structures appear in SMILES notation.

The series concerns the target Mushroom tyrosinase (Agaricus bisporus, UniProt C7FF04). On the set-up: method as in PMID 34306141, PMID 33939585. The note with it: value from previous study of the same authors; read-out: tyrosinase inhibitory effect IC50.

Sequence of Mushroom tyrosinase (C7FF04 1-392): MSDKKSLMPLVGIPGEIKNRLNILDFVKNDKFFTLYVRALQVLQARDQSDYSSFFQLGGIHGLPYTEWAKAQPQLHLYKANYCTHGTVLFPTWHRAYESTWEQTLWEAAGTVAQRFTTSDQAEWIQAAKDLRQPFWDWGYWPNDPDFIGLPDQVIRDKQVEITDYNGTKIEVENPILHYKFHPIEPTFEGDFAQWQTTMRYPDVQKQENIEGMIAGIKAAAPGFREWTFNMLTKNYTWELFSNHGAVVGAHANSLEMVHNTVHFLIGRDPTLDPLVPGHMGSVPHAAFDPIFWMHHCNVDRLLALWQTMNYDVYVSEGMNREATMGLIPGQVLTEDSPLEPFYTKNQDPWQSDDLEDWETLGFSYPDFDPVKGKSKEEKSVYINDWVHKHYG

For `CC(C)=CC[C@@]12OC(C)(C)O[C@@H]1CC(/C=C/c1ccc(O)cc1O)=CC2=O` [Streblus C], the IC50 was 0.01 µM.
